Format in all cases: cell-based
The target in test [1] is T1, human Nav1.7 channels stably expressed in HEK 293 cells (Homo sapiens, UniProt Q15858).
T1 construct: expressed in transfected cells
The test can be described thus: IonWorks Quattro automated patch-clamp, sodium current, inactivated state block. Particulars: read-out: potency for the Nav 1.7 sodium ion channel (as measured by IonWorks). On the procedure:
(§1) Compounds were tested on human Nav1.7 and Nav1.5 channels stably expressed in HEK 293 cells. […] Cells were sealed on a planar substrate using the Population Patch Plate (PPC) technology. Electrical access was obtained using both nystatin and amphotericin. A double-pulse protocol was used for the determination of IC50 values for inactivated state block. Nav1.7 and Nav1.5 expressing cells were voltage clamped at −100 mV and −110 mV, respectively. A depolarizing prepulse to −10 mV (Nav1.7) or −30 mV (Nav1.5) for 1000 ms followed by a 10 ms repolarization to −100 mV (Nav1.7) or −110 mV (Nav1.5) was given to generate fractional channel inactivation of ˜50%, followed by a 10 ms test pulse to −10 mV (Nav1.7) or −30 mV (Nav1.5) to measure peak current in control conditions and after compound addition. The following recording solutions were used (mM). External: 150 NaCl, 2 CaCl2, 5 KCl, 1 Mg Cl2, 10 HEPES, 12 Dextrose; internal: 120 CsF, 30 CsCl, 10 EGTA, 5 HEPES, 5 NaF, 2 MgCl2.
(§2) For all electrophysiology experiments, offline analysis was used to correct for current rundown and to determine percent inhibition as a function of drug concentration. IC50 values were determined by fitting to the Hill equation.
For orientation: The patch-clamp technique gives a direct electrical read-out from membranes.

For test [2], the target named is T2, human Nav1.5 channels stably expressed in HEK 293 cells (Homo sapiens, UniProt Q14524).
T2 construct: expressed in transfected cells
Described as above. Particulars: selectivity over Nav1.5. The method, then: as §1, §2

Test [3] addresses T1, human Nav1.7 channels stably expressed in HEK 293 cells. Kind of test: PatchXpress 7000 automated patch-clamp, sodium current. Particulars: 22° C., read-out: potency for the Nav 1.7 sodium ion channel (as measured by PatchXpress). The method, boiled down:
(§3)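 IC50 values came from Hill-equation fits of rundown-corrected inhibition. PatchXpress recordings at 22° C held cells 20 mV negative to V0.5 inact and applied 10 Hz trains of 30 ms steps to −20 mV (Nav1.7) or an 8000 ms prepulse 7 mV positive to V0.5 inact. […]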

The target of test [4] is T2, human Nav1.5 channels stably expressed in HEK 293 cells. The description is as above. Particulars: selectivity over Nav1.5. The method, boiled down: as §3

Structures are written as SMILES.

T1 sequence (Q15858 whole entry): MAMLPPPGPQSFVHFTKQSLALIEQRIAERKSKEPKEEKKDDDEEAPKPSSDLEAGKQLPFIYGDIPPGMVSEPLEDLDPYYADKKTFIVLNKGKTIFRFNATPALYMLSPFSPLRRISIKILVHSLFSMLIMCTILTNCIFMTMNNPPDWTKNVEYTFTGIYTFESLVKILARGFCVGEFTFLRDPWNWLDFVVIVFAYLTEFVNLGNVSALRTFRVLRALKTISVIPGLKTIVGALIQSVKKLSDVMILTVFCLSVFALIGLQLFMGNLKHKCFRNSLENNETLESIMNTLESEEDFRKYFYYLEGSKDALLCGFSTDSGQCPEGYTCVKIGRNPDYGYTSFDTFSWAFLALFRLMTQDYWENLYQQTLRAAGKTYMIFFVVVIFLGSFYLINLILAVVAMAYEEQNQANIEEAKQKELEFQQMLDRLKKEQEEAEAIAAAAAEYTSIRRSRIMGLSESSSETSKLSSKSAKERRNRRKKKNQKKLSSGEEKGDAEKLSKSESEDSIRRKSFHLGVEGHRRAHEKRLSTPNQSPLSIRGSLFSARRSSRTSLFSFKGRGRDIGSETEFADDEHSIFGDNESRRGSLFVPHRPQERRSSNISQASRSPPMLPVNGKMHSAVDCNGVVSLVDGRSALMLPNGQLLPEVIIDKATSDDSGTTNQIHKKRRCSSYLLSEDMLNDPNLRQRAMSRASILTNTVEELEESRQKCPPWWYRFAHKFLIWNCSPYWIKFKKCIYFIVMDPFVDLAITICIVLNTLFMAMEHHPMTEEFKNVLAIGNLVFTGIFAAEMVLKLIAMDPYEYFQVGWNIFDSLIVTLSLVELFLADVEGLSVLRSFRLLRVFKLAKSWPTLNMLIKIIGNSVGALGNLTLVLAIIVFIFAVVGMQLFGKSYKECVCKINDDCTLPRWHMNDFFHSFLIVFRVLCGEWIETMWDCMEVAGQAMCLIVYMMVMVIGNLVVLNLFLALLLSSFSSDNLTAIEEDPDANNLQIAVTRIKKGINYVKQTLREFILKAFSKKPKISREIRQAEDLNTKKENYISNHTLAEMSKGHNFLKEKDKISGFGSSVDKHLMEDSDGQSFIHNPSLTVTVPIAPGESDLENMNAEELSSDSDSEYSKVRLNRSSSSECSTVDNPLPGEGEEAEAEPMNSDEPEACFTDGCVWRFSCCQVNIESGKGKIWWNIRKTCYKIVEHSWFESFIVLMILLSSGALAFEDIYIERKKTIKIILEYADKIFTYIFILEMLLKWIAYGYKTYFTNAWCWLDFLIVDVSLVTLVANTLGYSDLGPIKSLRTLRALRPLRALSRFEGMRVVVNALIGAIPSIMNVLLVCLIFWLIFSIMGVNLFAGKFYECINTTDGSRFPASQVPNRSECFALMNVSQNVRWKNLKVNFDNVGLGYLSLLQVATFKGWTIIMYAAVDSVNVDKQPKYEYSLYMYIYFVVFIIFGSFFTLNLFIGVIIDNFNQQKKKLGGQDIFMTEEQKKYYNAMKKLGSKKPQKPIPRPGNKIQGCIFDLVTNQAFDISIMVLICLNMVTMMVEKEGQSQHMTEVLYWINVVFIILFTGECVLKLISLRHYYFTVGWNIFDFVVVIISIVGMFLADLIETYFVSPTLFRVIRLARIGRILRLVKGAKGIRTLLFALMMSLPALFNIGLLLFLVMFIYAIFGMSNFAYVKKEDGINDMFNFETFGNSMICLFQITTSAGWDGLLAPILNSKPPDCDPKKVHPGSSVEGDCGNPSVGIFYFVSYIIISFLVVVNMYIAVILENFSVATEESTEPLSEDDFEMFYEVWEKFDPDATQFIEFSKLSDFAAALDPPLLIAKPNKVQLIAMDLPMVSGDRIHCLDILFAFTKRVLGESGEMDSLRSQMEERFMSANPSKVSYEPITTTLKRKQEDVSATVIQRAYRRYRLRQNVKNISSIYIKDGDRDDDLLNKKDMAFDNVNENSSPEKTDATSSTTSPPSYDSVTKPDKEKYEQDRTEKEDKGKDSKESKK
T2 sequence (Q14524 whole entry): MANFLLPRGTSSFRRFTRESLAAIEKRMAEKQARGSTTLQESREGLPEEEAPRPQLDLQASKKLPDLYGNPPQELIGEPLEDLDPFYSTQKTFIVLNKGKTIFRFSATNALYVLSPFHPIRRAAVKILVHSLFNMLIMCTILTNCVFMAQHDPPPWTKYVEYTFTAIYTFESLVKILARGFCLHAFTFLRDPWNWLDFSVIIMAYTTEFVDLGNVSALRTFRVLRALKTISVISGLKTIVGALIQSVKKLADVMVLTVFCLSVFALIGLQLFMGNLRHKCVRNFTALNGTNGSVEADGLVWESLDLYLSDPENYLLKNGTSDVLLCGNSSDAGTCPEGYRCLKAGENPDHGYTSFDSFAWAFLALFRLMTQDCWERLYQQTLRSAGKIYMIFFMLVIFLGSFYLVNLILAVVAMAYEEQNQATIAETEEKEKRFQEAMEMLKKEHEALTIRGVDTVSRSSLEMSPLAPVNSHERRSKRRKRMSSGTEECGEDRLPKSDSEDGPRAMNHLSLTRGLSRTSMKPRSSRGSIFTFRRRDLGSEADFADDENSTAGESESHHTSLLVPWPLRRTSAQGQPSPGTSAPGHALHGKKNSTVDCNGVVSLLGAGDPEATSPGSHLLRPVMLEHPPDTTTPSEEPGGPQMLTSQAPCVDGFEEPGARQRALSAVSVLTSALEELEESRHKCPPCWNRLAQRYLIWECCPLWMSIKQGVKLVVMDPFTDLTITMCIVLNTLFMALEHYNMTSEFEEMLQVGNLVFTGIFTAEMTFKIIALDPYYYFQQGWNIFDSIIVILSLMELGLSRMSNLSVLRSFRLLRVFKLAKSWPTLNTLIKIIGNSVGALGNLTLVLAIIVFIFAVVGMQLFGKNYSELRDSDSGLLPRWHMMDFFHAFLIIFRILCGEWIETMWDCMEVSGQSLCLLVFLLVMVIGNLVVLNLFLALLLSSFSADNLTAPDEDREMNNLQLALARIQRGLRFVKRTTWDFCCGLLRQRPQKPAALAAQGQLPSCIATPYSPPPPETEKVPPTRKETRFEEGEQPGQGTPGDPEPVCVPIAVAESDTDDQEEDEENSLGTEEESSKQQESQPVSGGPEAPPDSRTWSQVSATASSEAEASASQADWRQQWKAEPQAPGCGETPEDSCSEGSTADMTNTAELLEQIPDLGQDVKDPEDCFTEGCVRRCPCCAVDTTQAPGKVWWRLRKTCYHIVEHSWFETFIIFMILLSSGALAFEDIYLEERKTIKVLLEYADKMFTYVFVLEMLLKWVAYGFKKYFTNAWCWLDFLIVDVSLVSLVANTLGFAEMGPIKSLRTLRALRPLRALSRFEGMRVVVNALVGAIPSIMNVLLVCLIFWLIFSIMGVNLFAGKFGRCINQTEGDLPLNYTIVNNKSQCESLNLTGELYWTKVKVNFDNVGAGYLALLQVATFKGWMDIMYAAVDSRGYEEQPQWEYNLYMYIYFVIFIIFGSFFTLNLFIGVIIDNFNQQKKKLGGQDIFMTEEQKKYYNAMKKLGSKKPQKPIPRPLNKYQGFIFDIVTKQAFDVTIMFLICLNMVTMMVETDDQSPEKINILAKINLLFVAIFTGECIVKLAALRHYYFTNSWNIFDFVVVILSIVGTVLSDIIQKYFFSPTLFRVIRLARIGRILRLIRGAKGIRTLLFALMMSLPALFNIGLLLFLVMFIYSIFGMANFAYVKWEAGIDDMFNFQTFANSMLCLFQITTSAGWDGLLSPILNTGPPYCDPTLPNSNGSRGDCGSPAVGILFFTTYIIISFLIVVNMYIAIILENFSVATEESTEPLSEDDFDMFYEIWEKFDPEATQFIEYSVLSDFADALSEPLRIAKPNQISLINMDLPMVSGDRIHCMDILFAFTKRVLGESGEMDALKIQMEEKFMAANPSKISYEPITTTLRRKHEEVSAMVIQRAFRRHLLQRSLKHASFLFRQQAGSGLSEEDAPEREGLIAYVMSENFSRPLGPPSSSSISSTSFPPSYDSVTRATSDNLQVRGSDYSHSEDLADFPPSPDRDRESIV

Consider `O=c1oc2cc(S(=O)(=O)Nc3ncns3)ccc2n1Cc1ccccc1` [Compound 1-10, 3-benzyl-2-oxo-N-1,2,4-thiadiazol-5-yl-2,3-dihydro-1,3-benzoxazole-6-sulfonamide], for which the results for the IC50 in test [1] and in test [3] were 803 nM and 486 nM, respectively. Also, in test [2], the “ratio of Nav 1.5:Nav 1.7 potency, determined by IonWorks measurement” value (“ratio … by IonWorks measurement” below) is recorded as > 41. Also, the “ratio of Nav 1.5:Nav 1.7 potency, determined by PatchXpress measurement” value (shortened to “ratio … by PatchXpress measurement”) in test [4] is > 62.

As for `O=c1oc2cc(S(=O)(=O)Nc3ncns3)ccc2n1Cc1cccc(Cl)c1` [Compound 1-11, 3-(3-chlorobenzyl)-2-oxo-N-1,2,4-thiadiazol-5-yl-2,3-dihydro-1,3-benzoxazole-6-sulfonamide], the IC50 in test [1] and in test [3] was 360 nM throughout. In test [2], the “ratio … by IonWorks measurement” value is 59. In addition, in test [4], the “ratio … by PatchXpress measurement” value is 59.

Regarding `O=c1oc2cc(S(=O)(=O)Nc3ncns3)ccc2n1Cc1ccccc1Cl` [Compound 1-12, 3-(2-chlorobenzyl)-2-oxo-N-1,2,4-thiadiazol-5-yl-2,3-dihydro-1,3-benzoxazole-6-sulfonamide], the IC50 in test [1] and in test [3] was 408 nM in each case. Also, in test [2], the “ratio … by IonWorks measurement” value was determined as 67. For the same molecule, the “ratio … by PatchXpress measurement” value in test [4] was determined as 67.

For the molecule `O=c1oc2cc(S(=O)(=O)Nc3ncns3)ccc2n1Cc1ccc(Cl)cc1` [Compound 1-13, 3-(4-chlorobenzyl)-2-oxo-N-1,2,4-thiadiazol-5-yl-2,3-dihydro-1,3-benzoxazole-6-sulfonamide], the IC50 in test [1] and in test [3] was 976 nM each time. Further, the “ratio … by IonWorks measurement” value in test [2] is > 34. Further, in test [4], the “ratio … by PatchXpress measurement” value was > 34.

For the molecule `NCc1ccccc1Cn1c(=O)oc2cc(S(=O)(=O)Nc3ncns3)ccc21` [Compound 1-14, 3-[2-(aminomethyl)benzyl]-2-oxo-N-1,2,4-thiadiazol-5-yl-2,3-dihydro-1,3-benzoxazole-6-sulfonamide], the IC50 in test [1] is 265 nM; in test [3], 365 nM. In addition, in test [2], the “ratio … by IonWorks measurement” value is > 125. For the same molecule, the “ratio … by PatchXpress measurement” value in test [4] turned out to be 45.

On to `NC/C=C/c1ccccc1Cn1c(=O)oc2cc(S(=O)(=O)Nc3ncns3)ccc21` [Compound 3-3, 3-{2-[(1E)-3-Aminoprop-1-en-1-yl]benzyl}-2-oxo-N-(1,2,4-thiadiazol-5-yl)-2,3-dihydro-1,3-benzoxazole-6-sulfonamide], for which the IC50 in test [1] was found to be 216 nM; in test [3] it was 336 nM. Besides, the “ratio … by IonWorks measurement” value in test [2] came out at 65. The “ratio … by PatchXpress measurement” value in test [4] is reported as > 89.

For the molecule `O=c1oc2cc(S(=O)(=O)Nc3ncns3)ccc2n1Cc1ccccc1-c1cccc2c1CNCC2` [Compound 3-4, 2-oxo-3-[2-(1,2,3,4-tetrahydroisoquinolin-8-yl)benzyl]-N-1,2,4-thiadiazol-5-yl-2,3-dihydro-1,3-benzoxazole-6-sulfonamide], the IC50 in test [1] was found to be 158 nM; in test [3] it was 110 nM. For the same molecule, in test [2], the “ratio … by IonWorks measurement” value was > 209. Also, the “ratio … by PatchXpress measurement” value in test [4] was > 272.

On to `O=c1oc2cc(S(=O)(=O)Nc3ncns3)ccc2n1Cc1ccccc1C1=CCNCCC1` [Compound 3-5, 2-oxo-3-[2-(2,5,6,7-tetrahydro-1H-azepin-4-yl)benzyl]-N-1,2,4-thiadiazol-5-yl-2,3-dihydro-1,3-benzoxazole-6-sulfonamide], for which the IC50 in test [1] was determined as 248 nM; in test [3], 111 nM. Further, in test [2], the “ratio … by IonWorks measurement” value is given as > 133. For the same molecule, in test [4], the “ratio … by PatchXpress measurement” value is reported as > 271.

Take `O=c1oc2cc(S(=O)(=O)Nc3ncns3)ccc2n1Cc1ccccc1C1=CC2CCC(C1)N2` (stereo not drawn) [Compound 3-7, 3-[2-(8-azabicyclo[3.2.1]oct-2-en-3-yl)benzyl]-2-oxo-N-1,2,4-thiadiazol-5-yl-2,3-dihydro-1,3-benzoxazole-6-sulfonamide]: the IC50 in test [1] came out at 292 nM; in test [3] it was 137 nM. For the same molecule, the “ratio … by IonWorks measurement” value in test [2] is > 113. Besides, the “ratio … by PatchXpress measurement” value in test [4] was > 219.

As for `O=c1oc2cc(S(=O)(=O)Nc3ncns3)ccc2n1Cc1ccccc1-c1cccc2c1CCNC2` [Compound 3-8, 2-oxo-3-[2-(1,2,3,4-tetrahydroisoquinolin-5-yl)benzyl]-N-1,2,4-thiadiazol-5-yl-2,3-dihydro-1,3-benzoxazole-6-sulfonamide], the IC50 in test [1] was found to be 321 nM; in test [3], 278 nM. In addition, the “ratio … by IonWorks measurement” value in test [2] is reported as > 103. Moreover, the “ratio … by PatchXpress measurement” value in test [4] is reported as > 108.

As to `NC/C=C/c1cc(Cl)ccc1Cn1c(=O)oc2cc(S(=O)(=O)Nc3ncns3)ccc21` [Compound 3-11, 3-{2-[(1E)-3-aminoprop-1-en-1-yl]-4-chlorobenzyl}-2-oxo-N-1,2,4-thiadiazol-5-yl-2,3-dihydro-1,3-benzoxazole-6-sulfonamide], the values for the IC50 in test [1] and in test [3] were 596 nM and 219 nM, respectively. For the same molecule, the “ratio … by IonWorks measurement” value in test [2] is reported as > 56. Moreover, the “ratio … by PatchXpress measurement” value in test [4] is listed as 87.

In the case of `C[C@H](c1cccc2c1CNCC2)n1c(=O)oc2cc(S(=O)(=O)Nc3ncns3)ccc21` [Compound 4-4, 2-Oxo-3-[(1R)-1-(1,2,3,4-tetrahydroisoquinolin-8-yl)ethyl]-N-(1,2,4-thiadiazol-5-yl)-2,3-dihydro-1,3-benzoxazole-6-sulfonamide], the IC50 is 5 nM in test [1] and 26 nM in test [3]. In addition, in test [2], the “ratio … by IonWorks measurement” value is reported as 4494. Moreover, in test [4], the “ratio … by PatchXpress measurement” value is given as > 1153.

With `CC(c1ccccc1)n1c(=O)oc2cc(S(=O)(=O)Nc3ncns3)ccc21` (stereo not drawn) [Compound 4-6, 2-oxo-3-(1-phenylethyl)-N-1,2,4-thiadiazol-5-yl-2,3-dihydro-1,3-benzoxazole-6-sulfonamide], the IC50 is 954 nM in test [1] and 342 nM in test [3]. Further, the “ratio … by IonWorks measurement” value in test [2] is reported as > 35. Besides, in test [4], the “ratio … by PatchXpress measurement” value was > 88.

Consider `C[C@H](c1ccccc1)n1c(=O)oc2cc(S(=O)(=O)Nc3ncns3)ccc21` [Compound 4-7, 2-oxo-3-[(1R)-1-phenylethyl]-N-1,2,4-thiadiazol-5-yl-2,3-dihydro-1,3-benzoxazole-6-sulfonamide], for which the IC50 in test [1] came to 670 nM; in test [3] it was 74 nM. Moreover, the “ratio … by IonWorks measurement” value in test [2] is 28. Moreover, in test [4], the “ratio … by PatchXpress measurement” value came to 287.

Consider `CC(c1ccccc1C(F)(F)F)n1c(=O)oc2cc(S(=O)(=O)Nc3ncns3)ccc21` (stereo not drawn) [Compound 4-9, 2-oxo-N-1,2,4-thiadiazol-5-yl-3-{1-[2-(trifluoromethyl)phenyl]ethyl}-2,3-dihydro-1,3-benzoxazole-6-sulfonamide], for which the IC50 in test [1] worked out at 1140 nM; in test [3] it was 2640 nM. Besides, in test [2], the “ratio … by IonWorks measurement” value is recorded as 22. In test [4], the “ratio … by PatchXpress measurement” value was > 11.

`CC(CCc1ccccc1)n1c(=O)oc2cc(S(=O)(=O)Nc3ncns3)ccc21` (stereo not drawn) [Compound 4-11, 3-(1-methyl-3-phenylpropyl)-2-oxo-N-1,2,4-thiadiazol-5-yl-2,3-dihydro-1,3-benzoxazole-6-sulfonamide]: the IC50 in test [1] is 1730 nM; in test [3] it was 1770 nM. The “ratio … by IonWorks measurement” value in test [2] was determined as 9. Also, the “ratio … by PatchXpress measurement” value in test [4] was > 17.

As for `CC(c1cccc2c1CNCC2)n1c(=O)oc2cc(S(=O)(=O)Nc3ncns3)ccc21` (stereo not drawn) [Compound 4-14, 2-oxo-3-[1-(1,2,3,4-tetrahydroisoquinolin-8-yl)ethyl]-N-1,2,4-thiadiazol-5-yl-2,3-dihydro-1,3-benzoxazole-6-sulfonamide], the IC50 turned out to be 25 nM in test [1] and 61 nM in test [3]. For the same molecule, in test [2], the “ratio … by IonWorks measurement” value is > 1338. In addition, the “ratio … by PatchXpress measurement” value in test [4] was > 495.

On to `C[C@@H](c1cccc2c1CNCC2)n1c(=O)oc2cc(S(=O)(=O)Nc3ncns3)ccc21` [Compound 4-15, 2-oxo-3-[(1S)-1-(1,2,3,4-tetrahydroisoquinolin-8-yl)ethyl]-N-1,2,4-thiadiazol-5-yl-2,3-dihydro-1,3-benzoxazole-6-sulfonamide], for which the IC50 in test [1] was 73 nM; in test [3], 343 nM. Further, in test [2], the “ratio … by IonWorks measurement” value is > 451. Besides, in test [4], the “ratio … by PatchXpress measurement” value is > 87.

Source of the values: US9273040B2 (Merck Sharp & Dohme Corp., priority 2011, dated 2016).
